From PubChem BioAssay (NCI)
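Dose response: 5 concentrations. Exposure: 48 h. Format: 96-well plates. Endpoint: linear interpolation; highest concentration if not reached. Here, GI50 denotes the concentration required for 50% inhibition of growth. TGI is the concentration that stops growth completely.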

What was measured:
Assay in all cases: NCI anticancer screen, dose series, 48 h
ACHN renal = tested on: ACHN renal
NCI-H460 lung = tested on: NCI-H460 lung
NCI/ADR-RES ovarian = tested on: NCI/ADR-RES ovarian
OVCAR-3 ovarian = tested on: OVCAR-3 ovarian
NCI-H226 lung = tested on: NCI-H226 lung
SF-539 CNS = tested on: SF-539 CNS
BT-549 breast = tested on: BT-549 breast
SK-MEL-5 melanoma = tested on: SK-MEL-5 melanoma

Row | Structure (SMILES) | TGI (ACHN renal) | TGI (NCI-H460 lung) | TGI (NCI/ADR-RES ovarian) | TGI (OVCAR-3 ovarian) | TGI (NCI-H226 lung) | TGI (SF-539 CNS) | TGI (BT-549 breast) | TGI (SK-MEL-5 melanoma) | GI50 (ACHN renal) | GI50 (NCI-H460 lung) | GI50 (NCI/ADR-RES ovarian) | GI50 (OVCAR-3 ovarian) | GI50 (NCI-H226 lung) | GI50 (SF-539 CNS) | GI50 (BT-549 breast) | GI50 (SK-MEL-5 melanoma)
1 | O=NNc1ccc(-c2ccccc2)cn1 | 15 µM | 42.9 µM | > 43.1 µM | 53.1 µM | > 64.6 µM | 80.8 µM | > 100 µM | 31.7 µM | – | – | – | – | – | – | – | –
2 | OCc1c(-c2cccs2)oc(-c2cccs2)c1CO | 72.1 µM | > 100 µM | > 100 µM | > 100 µM | > 100 µM | > 100 µM | > 100 µM | > 100 µM | 23.8 µM | 28.4 µM | 40.1 µM | 48.1 µM | 50.3 µM | 50.9 µM | 56 µM | 39 µM
3 | COC1CCCc2c(OC(C)=O)ccc(OC(C)=O)c21 (stereo not drawn) | > 100 µM | – | – | > 100 µM | > 100 µM | – | – | > 100 µM | – | – | – | – | – | – | – | –
4 | CC(NCCN(C)C)C1CCC2C3CCc4cc(O)ccc4C3CCC12C (stereo not drawn) | 3.99 µM | 4.68 µM | 8.97 µM | 4.37 µM | 34 µM | 9.52 µM | 31.4 µM | 3.29 µM | – | – | – | – | – | – | – | –
5 | CN(C)CCNC(=O)c1ccc2c(c1)oc1cc3ccccc3c(=O)n12 | 26 µM | 25.7 µM | 34.5 µM | 30.4 µM | – | – | 45.8 µM | 39.9 µM | 12.5 µM | 7.5 µM | 18.6 µM | 13.2 µM | – | – | 25.9 µM | 23.3 µM
6 | COc1ccc(CCN2CCCn3c2nc2ccccc2c3=O)cc1 | > 100 µM | > 100 µM | – | 0.136 µM | > 100 µM | 0.432 µM | > 100 µM | 4.44 µM | 0.978 µM | 0.0512 µM | 0.0432 µM | 0.0328 µM | 6.43 µM | 0.0876 µM | 0.717 µM | 0.0433 µM
7 | COc1ccc(-n2cc(-c3cc(OC)c(OC)c(OC)c3)nc2SCc2cccc(C#N)c2)cc1OC | > 100 µM | > 100 µM | > 100 µM | > 100 µM | > 100 µM | > 100 µM | – | > 100 µM | > 100 µM | > 100 µM | > 100 µM | 65 µM | > 100 µM | 90.3 µM | – | 71.8 µM
8 | CNC(=O)[C@H](Cc1c[nH]c2ccccc12)NC(=O)[C@@H](CC(=O)NO)CC(C)C | > 25 µM | > 25 µM | > 25 µM | > 25 µM | > 25 µM | > 25 µM | > 25 µM | > 25 µM | > 25 µM | > 25 µM | > 25 µM | > 25 µM | > 25 µM | > 25 µM | > 25 µM | > 25 µM
9 | O=C(Nc1cc(Cl)c(I)c(Cl)c1)C(F)(F)F | > 100 µM | > 100 µM | > 100 µM | 81.2 µM | 66.8 µM | – | 63 µM | 36.1 µM | – | – | – | – | – | – | – | –
10 | NCC(=O)Nc1ccc(Cl)cc1C(=O)c1ccc[nH]1 | > 100 µM | > 100 µM | > 100 µM | > 100 µM | > 100 µM | > 100 µM | > 100 µM | > 100 µM | – | – | – | – | – | – | – | –
11 | CC(C)(C)OC(=O)N(CCCCN(CCCn1c2c(c3ccccc3c1=O)C(=O)c1ccccc1-2)C(=O)OC(C)(C)C)CCCn1c2c(c3ccccc3c1=O)C(=O)c1ccccc1-2 | > 100 µM | 19.3 µM | > 100 µM | > 100 µM | > 100 µM | 33.1 µM | > 100 µM | > 100 µM | 14.3 µM | 6.32 µM | 30.1 µM | 69.6 µM | 99.2 µM | 8.79 µM | > 100 µM | 48.5 µM
12 | COc1ccc(-c2nc(NC(=O)CS(=O)(=O)c3ccc(F)cc3)sc2C)cc1 | > 100 µM | 51.5 µM | > 100 µM | 39.9 µM | 87.8 µM | 37.2 µM | 40.3 µM | 25.9 µM | 30 µM | 20.1 µM | 17.4 µM | 15.7 µM | 23.8 µM | 16.9 µM | 15.8 µM | 12.8 µM
13 | Cc1cccc(CNc2c3ccccc3nc3ccccc23)c1 | 3.47 µM | 5.03 µM | 5.97 µM | 5.92 µM | 6.02 µM | 3.14 µM | 6.32 µM | 3.14 µM | 1.52 µM | 1.99 µM | 1.85 µM | 2.29 µM | 1.99 µM | 1.67 µM | 2.34 µM | 1.7 µM
14 | O=C(NCCCN1CCN(CCCNC(=O)c2cccc3ccccc23)CC1)c1cccc2ccccc12 | > 100 µM | > 100 µM | – | > 100 µM | > 100 µM | > 100 µM | – | > 100 µM | – | – | – | – | – | – | – | –
15 | Nc1nc(N)nc(CCCCc2nc(N)nc(N)n2)n1 | > 100 µM | > 100 µM | > 100 µM | > 100 µM | > 100 µM | > 100 µM | > 100 µM | > 100 µM | – | – | – | – | – | – | – | –
16 | C=CCCC(O)c1cc(C)c(O)c(C)c1 (stereo not drawn) | > 100 µM | > 100 µM | – | > 100 µM | > 100 µM | > 100 µM | – | > 100 µM | – | – | – | – | – | – | – | –
17 | N[C@H]1CCC[C@@H](O)C1O (stereo partly drawn) | > 100 µM | > 100 µM | > 100 µM | > 100 µM | > 100 µM | > 100 µM | > 100 µM | > 100 µM | – | – | – | – | – | – | – | –
18 | CN(c1cccc(C(=O)O)c1)c1cc(O/N=[N+](\[O-])N(C)C)c([N+](=O)[O-])cc1[N+](=O)[O-] | > 100 µM | > 100 µM | > 100 µM | > 100 µM | > 100 µM | > 100 µM | > 100 µM | > 100 µM | > 100 µM | > 100 µM | > 100 µM | > 100 µM | > 100 µM | > 100 µM | > 100 µM | > 100 µM
19 | Nc1[nH]nc(Nc2ccccc2)c1-c1nc2ccccc2s1 | 6.27 µM | 4.17 µM | 6.64 µM | 3.76 µM | 17 µM | 3.34 µM | 3.34 µM | 15.8 µM | 2.08 µM | 1.94 µM | 2.11 µM | 1.7 µM | 3.71 µM | 1.68 µM | 1.52 µM | 4.66 µM
20 | O=C(O)/C=C/c1c2ccc(=O)c(O)c-2oc2c(O)c(O)ccc12 | > 100 µM | > 100 µM | > 100 µM | > 100 µM | > 100 µM | – | > 100 µM | > 100 µM | – | – | – | – | – | – | – | –
21 | CN(C)Cc1ccc(NC(=O)c2cncc(C#Cc3cnc(N)c4ncccc34)c2)cc1C(F)(F)F | 2.89 µM | 3.12 µM | 3.67 µM | 3.8 µM | – | 2.66 µM | 4.36 µM | 2.41 µM | 1.52 µM | 1.67 µM | 1.8 µM | 1.98 µM | – | 1.36 µM | 2.21 µM | 1.17 µM
22 | Cn1cc(-c2ccc3c4ccccc4n(C)c3c2)c2ccccc21 | > 100 µM | > 100 µM | – | > 100 µM | > 100 µM | > 100 µM | – | > 100 µM | – | – | – | – | – | – | – | –
23 | COc1ccc([N+](=O)[O-])c2c(NCCCN(C)C)c(C)c(C)nc12 | > 100 µM | > 100 µM | > 100 µM | > 100 µM | – | > 100 µM | > 100 µM | > 100 µM | – | – | – | – | – | – | – | –
24 | CNc1c2ccccc2nc2occ(Cl)c12 | 70.5 µM | 72.1 µM | > 100 µM | 75.2 µM | > 100 µM | – | – | 34.8 µM | 24 µM | 21.8 µM | 30.1 µM | 24 µM | 32.9 µM | – | – | 16.6 µM
25 | O=C(c1ccc(Cl)cc1Cl)N1CCN(C(=O)c2ccc(Cl)cc2Cl)C1=S | 45.7 µM | > 100 µM | 74.3 µM | 42.4 µM | 60.1 µM | 49.6 µM | 54.2 µM | – | 21.3 µM | 35.4 µM | 24.8 µM | 19.7 µM | 40.9 µM | 27.2 µM | 21.1 µM | –
26 | COC(=O)CNC(=O)C(=O)c1c(O)c(O)c(C(C)C)c2cc(C)c(-c3c(C)cc4c(C(C)C)c(O)c(O)c(C(=O)C(=O)NCC(=O)OC)c4c3O)c(O)c12 | 5.54 µM | 4.57 µM | 9.28 µM | 6.34 µM | – | 7.84 µM | 11.8 µM | 11.3 µM | 1.42 µM | 1.52 µM | 1.93 µM | 1.61 µM | – | 1.77 µM | 2.65 µM | 4.29 µM
27 | CCN(Cc1ccc(Cl)c(Cl)c1)c1ccc2nc(N)nc(N)c2c1C | 1.78 µM | 1.47 µM | 1.63 µM | – | 4.3 µM | 1.48 µM | 7.27 µM | 1.45 µM | < 0.01 µM | < 0.01 µM | 0.0104 µM | – | 0.96 µM | 0.0695 µM | 0.296 µM | < 0.01 µM
28 | Nc1n[n+]([O-])c2ccc(Cl)cc2[n+]1[O-] | > 100 µM | – | > 100 µM | – | 72.9 µM | 58.7 µM | 29.2 µM | 16.5 µM | – | – | – | – | – | – | – | –
29 | Cc1c(C)c2cc3c(=O)c(CCl)coc3c(C)c2oc1=O | > 100 µM | > 100 µM | – | > 100 µM | > 100 µM | > 100 µM | – | > 100 µM | – | – | – | – | – | – | – | –
30 | O=C1OC(c2ccc([N+](=O)[O-])cc2)=N/C1=C\c1ccc(Cl)cc1 | > 100 µM | > 100 µM | – | > 100 µM | > 100 µM | > 100 µM | > 100 µM | > 100 µM | – | – | – | – | – | – | – | –
